Experimental data reported in patent US9241951B2, “Of gastrointestinal health, immunity and performance by dietary intervention” (BIOATLANTIS LTD, priority 2009, dated 2016).

Tests used:
Type in all cases: in vivo, pig
[1] = tested on: IL-17; assay: Cytokine gene expression after ex-vivo LPS tissue challenge of ileum and colon, Example 5; settings: ileum, ex-vivo LPS challenge (10 μg/ml, 90 minutes)
Source text: (§1) 21 pigs with an initial weight of 17.9±2.2 Kg were assigned to one of the 3 dietary treatments: (T1) control; (T2) basal diet+300 ppm LAM; (T3) basal diet+600 ppm LAM. Experimental feeding continued for 21 days ad libitum. Diets were formulated to have similar digestible energy (DE) (14.4 MJ/Kg) and ileal digestible lysine (12.5 g/Kg).
(§2) Ileal and colonic tissues were sampled from the same location as described for digesta samples. Excised tissues were emptied by dissecting them along the mesentery and rinsing them using sterile phosphate buffered saline (PBS) (Oxoid). Tissue sections 1 cm^3, which had been stripped of the overlying smooth muscle were cut from each tissue. Two sections from each tissue were placed in 1 ml of Dulbecco's Modified Eagle's Medium (DMEM) (Gibco), one in the presence of bacterial lipopolysaccharide (LPS) (Sigma Aldrich) at a concentration of 10 μg/ml. The other tissue sample was used as a control and incubated in sterile DMEM in the absence of LPS. Both challenged and unchallenged tissues were incubated at 37° C. for 90 minutes before being removed, blotted dry and weighed. Approximately 1-2 g of porcine ileum and colon tissues were cut into small pieces and collected in 15 ml of RNAlater® (Applied Biosystems, Foster City, Calif.). RNAlater® was removed before storing the samples at −80° C. until used for RNA extraction.
(§3) Tissue samples for RNA extraction were removed from −86° C. and homogenised. 500 μl of lysis solution/2-ME was added to each sample and these were mechanically disrupted using one 5 mm stainless steel bead per sample. These were then placed in a Tissue Lyser (Qiagen) and lysates were homogenised for 3 mins and transferred to a GenElute Filtration Column (Sigma Aldrich) and RNA was extracted. 1 µg of total RNA was used for cDNA synthesis using oligo(dT)20 primer in a final reaction volume of 20 μl with Superscript™ III First-Strand synthesis system for reverse transcriptase-polymerase chain reaction (RT-PCR) (Invitrogen Life Technologies, Carlsbad, Calif.). At the last step of cDNA synthesis, treatment with E. coli RNase H (Invitrogen Corp.) was performed to digest the remaining RNA/mRNA template, resulting in the production of the single-stranded cDNA template for subsequent qRT-PCR reactions.
(§4) All porcine primers for the cytokine genes interferon gamma (IFN-γ), interleukin-1α (IL-1α), IL-6, IL-8, IL-10, IL-17, tumour necrosis factor (TNF-α), the mucin genes (MUCs 1, 2, 4, 5AC, 12, 13 and 20) and three reference genes, β-actin (ACTB), Glyceraldehyde-3-phosphate dehydrogenase (GAPDH) and Peptidylprolyl isomerase A (PPIA), were designed using Primer Express™ (PE Applied Biosystems, Foster City, Calif.) and synthesised by MWG Biotech (Milton Keynes, UK). These reference genes were previously validated for use in porcine tissue and qPCR was then carried out on the cDNA using the ABI PRISM 7900HT Fast sequence detection system for 96-well plates (Applied Biosystems, Foster City, Calif.). All samples were prepared in duplicate using SYBR Green Fast PCR Master Mix (Applied Biosystems, Foster City, Calif.), cDNA as template and specific primers for the genes selected. For each reaction 5 μl cDNA, 1.2 μl (forward and reverse primer mix, 5 μM), 10 μl Fast SYBR Green PCR Master Mix (PE Applied Biosystems, Foster City, Calif.) was added and made up to a final volume of 20 μl. The two step PCR program was as follows: 95° C. for 10 minutes for 1 cycle followed by 95° C. for 15 seconds and 60° C. for 1 minute for 40 cycles. The raw Ct values for the reference genes were converted to relative quantities using the formula Q=E ^ΔCt where E is the PCR efficiency of the assay and ^ΔCt is the value calculated for the difference between the lowest Ct value for each gene minus the Ct value of the sample in question. The relative quantities of the endogenous controls were then analysed for stability in geNorm (Vandesompele et al., 2002). […]

[2] = tested on: IL-8; assay: as above
Source text: as §1, §2, §3, §4

[3] = tested on: IL-6; assay: as above
Source text: as §1, §2, §3, §4

[4] = tested on: TNF-α; assay: as above; settings: ileum, ex-vivo LPS challenge (10 μg/ml, 90 minutes)
Source text: as §1, §2, §3, §4

[5] = tested on: IL-1α; assay: as above; settings: ileum, ex-vivo LPS challenge (10 μg/ml, 90 minutes)
Source text: as §1, §2, §3, §4

[6] = tested on: IL-10; assay: as above; settings: ileum, ex-vivo LPS challenge (10 μg/ml, 90 minutes)
Source text: as §1, §2, §3, §4

[7] = tested on: IFN-γ; assay: as above; settings: ileum, ex-vivo LPS challenge (10 μg/ml, 90 minutes)
Source text: as §1, §2, §3, §4

[8] = tested on: IL-1α; assay: Cytokine gene expression in unchallenged ileum and colon tissue (qPCR), Example 5; settings: unchallenged ileum or colon tissue; LAM 300, 600 ppm
Method: as §1
Ileal and colonic tissues was stabilised in RNAlater® solution and stored overnight at 4° C. The following day, RNAlater® was removed and samples were stored at −86° C. prior to RNA extraction.
as §3
All porcine primers for the cytokine genes interferon gamma (IFN-γ), interleukin-1α (IL-1α), IL-6, IL-8, IL-10, IL-17, tumour necrosis factor (TNF-α), the mucin genes (MUCs 1, 2, 4, 5AC, 12, 13 and 20) and three reference genes, β-actin (ACTB), Glyceraldehyde-3-phosphate dehydrogenase (GAPDH) and Peptidylprolyl isomerase A (PPIA), were designed using Primer Express™ (PE Applied Biosystems, Foster City, Calif.) and synthesised by MWG Biotech (Milton Keynes, UK). These reference genes were previously validated for use in porcine tissue and qPCR was then carried out on the cDNA using the ABI PRISM 7900HT Fast sequence detection system for 96-well plates (Applied Biosystems, Foster City, Calif.). All samples were prepared in duplicate using SYBR Green Fast PCR Master Mix (Applied Biosystems, Foster City, Calif.), cDNA as template and specific primers for the genes selected. For each reaction 5 μl cDNA, 1.2 μl (forward and reverse primer mix, 5 μM), 10 μl Fast SYBR Green PCR Master Mix (PE Applied Biosystems, Foster City, Calif.) was added and made up to a final volume of 20 μl. The two step PCR program was as follows: 95° C. for 10 minutes for 1 cycle followed by 95° C. for 15 seconds and 60° C. for 1 minute for 40 cycles. The raw Ct values for the reference genes were converted to relative quantities using the formula Q=E ^ΔCt where E is the PCR efficiency of the assay and ^ΔCt is the value calculated for the difference between the lowest Ct value for each gene minus the Ct value of the sample in question. The relative quantities of the endogenous controls were then analysed for stability in geNorm (Vandesompele et al., 2002). The stability ‘M’ value generated by the geNorm application for the selected endogenous controls (ACTB, GAPDH and PPIA) indicated their suitability as endogenous controls for these intestinal samples. The geometric mean of the relative quantities for ACTB, GAPDH and PPIA (normalisation factor) was then calculated using geNorm. The relative quantities of each target gene were divided by the normalisation factor (obtained in geNorm) for that sample to give the final normalised relative expression.

[9] = ileum, ex-vivo LPS challenge (10 μg/ml, 90 minutes)

For laminarin, the IL-17 gene expression [1] was “no effect”, the IL-8 gene expression ([2]; colon, LPS-challenged tissue, increasing LAM) was “linear increase” and the IL-8 gene expression [2, 9] was “no effect”. The IL-6 expression ([3]; colon, LPS-challenged tissue, LAM 300 ppm) was “increase”, the IL-6 gene expression [3, 9] was “no effect” and the TNF-α gene expression [4] was “no effect”. The IL-1α gene expression [5] was “no effect”, the IL-10 gene expression [6] was “no effect” and the IFN-γ gene expression [7] was “no effect”. The IL-1α gene expression [8] was “no effects”.
